Publication PMC3253113, “Presenilin Is the Molecular Target of Acidic γ-Secretase Modulators in Living Cells” (PLoS ONE, 2012)
pIC50: −log10 of the molar value. Entries after “also recorded” stand apart in the source; their conditions may differ. Read-outs that look alike come from different tables or passages of the source. One block for each molecule: values may come before it.

Experiments:
N2a-ANPP cells = assay: Cell viability, alamarBlue reagent; assay type: cell-based
Experimental: Cell viability was assessed using the alamarBlue® reagent (Invitrogen). N2a-ANPP cells were seeded at low density in 96-well plates (4000 cells/well) and cultured for 24 h. The cells were then treated in duplicates with increasing concentrations of the respective compounds or DMSO as vehicle for an additional 24 h. 20 µl alamarBlue® was added to cells cultured in 200 µl medium and incubated overnight. Absorbance was measured with a Paradigm™ microplate reader at 570 nm, using 600 nm as the reference wavelength, and percent viability of vehicle control was calculated.

PSEN1-NTF [1] = target: T1, PSEN1-NTF (Homo sapiens, UniProt P49768); settings: N2a-ANPP membranes, cell-free, 0.5 µM AR243 co-incubated with 100 µM competitor
PSEN1-NTF [2] = target: T1, PSEN1-NTF; assay: Competition of photo-probe AR243 binding, HEK293T membrane preparations; settings: HEK293T membranes, excess of competitor (100 µM)
Aβ42 levels = assay: Aβ42-lowering activity in PS70 cells, sandwich ELISA of conditioned media; settings: CHO, 24 h, read-out: IC50 (Aβ42), Aβ42-lowering activity
APH-1 = APH-1 (Homo sapiens, UniProt Q96BI3); assay: Photo-affinity labeling in vitro, N2a-ANPP membrane preparations; assay type: binding; settings: N2a-ANPP membranes, 0.25% CHAPSO, 0.5 µM photo-probe, UV
PSEN1-CTF [3] = target: T2, PSEN1-CTF (Homo sapiens, UniProt P49768); assay: as above; assay type: binding; settings: N2a-ANPP membranes, 0.25% CHAPSO, 0.5 µM photo-probe, UV
Aβ38 levels = Aβ38 levels in PS70 cells, sandwich ELISA of conditioned media; settings: CHO cells with wild type APP and PSEN1, increasing concentrations
PEN-2 = PEN-2 (Homo sapiens, UniProt Q9NZ42); assay: Photo-affinity labeling in vitro, N2a-ANPP membrane preparations; assay type: binding; settings: N2a-ANPP membranes, 0.25% CHAPSO, 0.5 µM photo-probe, UV
PSEN1-CTF [4] = target: T2, PSEN1-CTF; assay: Photo-affinity labeling in vitro, HEK293T membrane preparations; assay type: binding; parameters: host or cells: HEK293T membrane preparations
Experimental: Subsequently, cells were UV-irradiated on ice for 30 min at 365 nm and for 30 min at 302 nm. As negative controls, UV irradiation was omitted or cells were incubated with DMSO vehicle or compound AR80, which was structurally identical to AR243 but lacked the biotin moiety. Cells were washed and harvested in PBS and incubated with hypotonic buffer (10 mM Tris pH 7.4, 1x protease inhibitor mix) for 10 min on ice. To prepare cellular membranes, cells were passed 10 times through a 30G needle and centrifuged at 800×g, 10 min, 4°C. The post-nuclear supernatant was centrifuged at 18.000×g, 45 min, 4°C. […] The total protein concentration of the membrane preparations was determined by BCA assay, concentrations and volumes of each sample were adjusted, and 5x RIPA buffer was added to a final concentration of 1x RIPA buffer (150 mM NaCl, 1.0% NP-40, 0.5% sodium deoxycholate, 0.1% SDS, […], pH 8.0). […] Protein concentrations were again determined and adjusted to equal levels prior to the addition of streptavidin magnetic beads (Invitrogen). […] The eluted material was separated on 12% Bis-Tris gels and analyzed by Western blotting. Chemiluminescence was recorded with a LAS 3000 ECL camera system (Fuji Photo Film GmbH, Duesseldorf, Germany) or on CL-XPosure film (Fisher Scientific GmbH, Schwerte, Germany). […]

endogenous PSEN1-NTF = target: T3, endogenous PSEN1-NTF (Homo sapiens, UniProt P49768); assay: as above; assay type: binding
T3 construct: host or cells: HEK293T membrane preparations

PSEN1-CTF [5] = target: T2, PSEN1-CTF; assay: Photo-affinity labeling in living N2a-ANPP cells; assay type: cell-based; settings: live N2a-ANPP cells, 0.2 µM photo-probe, UV 365 and 302 nm
Experimental: (§1) Subsequently, cells were UV-irradiated on ice for 30 min at 365 nm and for 30 min at 302 nm. As negative controls, UV irradiation was omitted or cells were incubated with DMSO vehicle or compound AR80, which was structurally identical to AR243 but lacked the biotin moiety. Cells were washed and harvested in PBS and incubated with hypotonic buffer (10 mM Tris pH 7.4, 1x protease inhibitor mix) for 10 min on ice. To prepare cellular membranes, cells were passed 10 times through a 30G needle and centrifuged at 800×g, 10 min, 4°C. The post-nuclear supernatant was centrifuged at 18.000×g, 45 min, 4°C. […] The total protein concentration of the membrane preparations was determined by BCA assay, concentrations and volumes of each sample were adjusted, and 5x RIPA buffer was added to a final concentration of 1x RIPA buffer (150 mM NaCl, 1.0% NP-40, 0.5% sodium deoxycholate, 0.1% SDS, […], pH 8.0). […] Protein concentrations were again determined and adjusted to equal levels prior to the addition of streptavidin magnetic beads (Invitrogen). […] The eluted material was separated on 12% Bis-Tris gels and analyzed by Western blotting. Chemiluminescence was recorded with a LAS 3000 ECL camera system (Fuji Photo Film GmbH, Duesseldorf, Germany) or on CL-XPosure film (Fisher Scientific GmbH, Schwerte, Germany).

PSEN1-NTF [6] = target: T1, PSEN1-NTF; assay: Photo-affinity labeling in living N2a-ANPP cells; assay type: cell-based; settings: live N2a-ANPP cells, 0.2 µM photo-probe, UV 365 and 302 nm
Experimental: as §1

Nicastrin = Nicastrin (Homo sapiens, UniProt Q92542); assay: Photo-affinity labeling in vitro, N2a-ANPP membrane preparations; assay type: binding; settings: N2a-ANPP membranes, 0.25% CHAPSO, 0.5 µM photo-probe, UV

- Competition of AR243 binding to PSEN1-NTF (PSEN1-NTF [1]): efficiently reduced the labeling signal
- Displacement of AR243 from PSEN1-NTF (PSEN1-NTF [2]): caused displacement of the photo-probe
- pIC50 (Aβ42 levels): 7.06
SMILES: CC(C)C#CC(c1ccc(Cl)cc1)N1CCC(CC(=O)O)CC1c1ccc(C(F)(F)F)cc1 (centres unmarked) [BB25]
- Concentrations with dose-dependent cytotoxicity (N2a-ANPP cells): > 10 µM

- pIC50 (Aβ42 levels): 6.72
SMILES: CC(C)C#CC(c1ccc(C2(C(F)(F)F)N=N2)cc1)N1CCC(CC(=O)O)CC1c1ccc(C(F)(F)F)cc1 (centres unmarked) [AR80]

- Competition of AR243 binding to PSEN1-NTF (PSEN1-NTF [1]): only partially competed
- Competition of AR243 binding to PSEN1-NTF (PSEN1-NTF [1]; listed as compound 2): more modest reductions
- pIC50 (Aβ42 levels): 7.11
SMILES: CCOc1cc(C)c(Nc2ccnc(N3CCN(c4ccc(OC)cc4)C(C)(C)C3)n2)cc1C(C)C [Compound 2]

- pIC50 (Aβ42 levels): 7.27
SMILES: COc1cc(-c2cc(C)c(NC(C)c3ccc(F)cc3)nn2)ccc1-n1cnc(C)c1 (centres unmarked) [Compound 1]
- Competition of AR243 binding to PSEN1-NTF (PSEN1-NTF [1]): reduced binding of the photo-probe as effectively as the acidic compound JNJ-40418677

SMILES: COc1cc(/C=C2\CCCN([C@@H](C)c3ccc(F)cc3)C2=O)ccc1-n1cnc(C)c1 [E-2012]
- Competition of AR243 binding to PSEN1-NTF (PSEN1-NTF [1]): more modest reductions; also recorded: only partially competed
- pIC50 (Aβ42 levels): 7.28

SMILES: CC(C)CC(C(=O)O)c1cc(-c2ccc(C(F)(F)F)cc2)cc(-c2ccc(C(F)(F)F)cc2)c1 (centres unmarked) [JNJ-40418677]
- pIC50 (Aβ42 levels): 6.54

- Photo-affinity labeling of APH-1 (Western blotting) (APH-1): did not demonstrate binding
- Photo-affinity labeling of PSEN1-CTF (Western blotting) (PSEN1-CTF [3]): did not demonstrate binding
- Photo-affinity labeling of PEN-2 (Western blotting) (PEN-2): did not demonstrate binding
- Photo-affinity labeling of PSEN1-CTF (Western blotting) (PSEN1-CTF [4]): not PSEN1-CTF
- Photo-affinity labeling of endogenous PSEN1-NTF (Western blotting) (endogenous PSEN1-NTF): labeling of endogenous PSEN1-NFT
- Photo-affinity labeling of PSEN1-CTF in living cells (Western blotting) (PSEN1-CTF [5]): did not demonstrate binding
- Photo-affinity labeling of Nicastrin (Western blotting) (Nicastrin): did not demonstrate binding
- pIC50 (Aβ42 levels): 6.54
SMILES: O=C(O)CC1CCN(C(C#CCCCCOC(=O)CCCC[C@@H]2SC[C@@H]3NC(=O)N[C@@H]32)c2ccc(C3(C(F)(F)F)N=N3)cc2)C(c2ccc(C(F)(F)F)cc2)C1 (stereo partly drawn) [AR243, 2-(1-(7-((5-((3aS,4S,6aR)-2-oxohexahydro-1H-thieno[3,4-d]imidazol-4-yl)pentanoyl)oxy)-1-(4-(3(trifluoromethyl)-3H-diazirin-3-yl)phenyl)hept-2-yn-1-yl)-2-(4(trifluoromethyl)phenyl)piperidin-4-yl)acetic acid]
- Effect on Aβ38 levels (Aβ38 levels): concomitant increase in Aβ38 levels
- Photo-affinity labeling of PSEN1-NTF in living cells (Western blotting) (PSEN1-NTF [6]): efficient labeling of PSEN1-NTF; also recorded: demonstrated binding of the photo-probe to PSEN1-NTF
